Here are results for 22 molecules from US5736523A, “Antineoplastic heteronapthoquinones” (Biochem Pharma Inc., priority 1995, dated 1998).

Counter-ions that a name gives are not always drawn.

The assay concerns SKVLB (Ovarian; multidrug resistant). Briefly: In vitro cytotoxicity, microculture tetrazolium (MTT) assay, SKVLB. The conditions noted are these: ratio SKVLB / SKOV3. It is filed as cell-based, human. Here is the method:
In Vitro Cytotoxicity--Microculture Tetrazolium Assay
The microculture tetrazolium assay was used to test in vitro cytotoxicity. This assay is described in Plumb, J. A. et al., 1989 Cancer Research 49, 4435-4440, which is herein incorporated by reference. The cytotoxicity of compounds towards tumor cells is measured in vitro using the assay. This assay method is based upon the ability of live, but not dead cells to reduce the yellow water soluble dye 3-(4;5-dimethylthiazol-2-yl)-2,5-diphenyltetrazolium bromide (MTT) to its water insoluble purple formazan product.
Human Tumor Cell lines, used were:
SKVLB (Ovarian; multidrug resistant)--Dr. V. Ling, Ontario
The cells were maintained in exponential growth in culture in minimal essential media (MEM) supplemented with non-essential amino acids, and containing 15% (v/v) fetal bovine serum, 5 mM L-glutamine, 1 mM sodium pyruvate, and 0.1 U/ml insulin. All cell lines were grown at 37° C. in an atmosphere of 5% CO2 in air.
Test compounds: 20 mM in DMSO and diluted to a final concentration of 200 μM in culture medium before use.
The following is the generic description of the assay method. It should be noted that although the conditions described work well with the cells listed above, the initial plating density and the MTT concentration used should be verified for each new cell line used to test compounds.
For each assay, doxorubicin is included as an inter-assay standard. This allows us to monitor the behaviour of the assay in general, and in particular, to check that the SKVLB line has maintained its resistant phenotype.
The plate layout is done in the following manner: The assays are carried out in 96-well (8 well×12 well) microtiter plates. Serial dilutions of the compound are tested along the length of the plate. A 1:3 serial dilution of compound in culture medium covers a concentration range from 100 μM to 1.7 nM. Each concentration of compound is tested in quadruplet, allowing two compounds to be tested per plate. Wells containing no cells (blank) and cells with no test compound (control) are included on each plate.
Cells are plated out in 100 μl of culture medium in the microtiter plates at a density of around 1,500-4,000 cells per well. The plates are incubated overnight to allow the cells to become adherent after which the test compound is added (100 μl of appropriate dilution per well). The cells are incubated with test compound at 37° C. for 48 h after which the compound is replaced with fresh medium. After a further 48 h incubation at 37° C., 50 μl of MTT solution (2 mg/ml) is added to each well. The plates are incubated in the dark for 4 h at 37° C. after which the medium is removed. The MTT formazan product is extracted from the cells by the addition of 200 μl DMSO followed by 50 μl of Sorensen's buffer. The plates are shaken briefly and the absorbance at 570 nm is read using a Molecular Devices UV max plate reader. Curves are fit to the MTT assay data using a four parameter logistic equation, and the data are normalized to fit a 0% to 100% survival scale.
For `CC(C)C(=O)[C@@H]1CC2=C(C(=O)c3ccccc3C2=O)[C@@H](O[C@H]2C[C@H](NC(=O)C(F)(F)F)[C@H](O)[C@H](C)O2)O1` [BCH2112, (1'S,1R,3S)-isopropyl-[1-(2',3',6'-trideoxy-3'-trifluoroacetamido-L-lyxohexopyranose)-5,10-dioxo-3,4,5,10-tetrahydro-1H-naphtho-[2,3-c]-pyranyl]-ketone], the VLB/OV3 is recorded as 15.96-17.

As for `CC(=O)C1CC2=C(C(=O)c3ccccc3C2=O)C(OCC2CCCCN2)O1` (racemic) [BCH2069, Methyl-(1-O-[2'-piperidinemethanol]-5,10-dioxo-3,4,5,10-tetrahydronaphthaleno-[2,3-c]pyran-3-yl) ketone, racemic, hydrochloride], the VLB/OV3 was 2-9.8.

As for `COC1OC(C(C)=O)=CC2=C1C(=O)c1ccccc1C2=O` (stereo not shown) [BCH2129, 3-Aceto-5,10-dioxo-1-methoxy-5,10-dihydro-1H-naphtho-(2,3-c)-pyran], the VLB/OV3 was 2.95.

With `COC(=O)[C@@]1(C)CC2=C(C(=O)c3ccccc3C2=O)[C@H](O[C@H]2C[C@H](NC(=O)C(F)(F)F)[C@H](O)[C@H](C)O2)O1` [BCH2076, (1'S,1S,3R)-1-(3'-trifluoroacetamido-2',3',6'-trideoxy-lyxo-L-hexopyranose)-3-methoxycarbonyl-3-methyl-3,4,5,10-tetrahydro-5,10-dioxonaphtho-[2,3-c] pyran], the VLB/OV3 is 9.

With `COCC1(COC)CC2=C(C(=O)c3ccccc3C2=O)[C@H](O[C@H]2C[C@H](NC(=O)C(F)(F)F)[C@H](O)[C@H](C)O2)O1` [BCH1697], the VLB/OV3 is 3.57.

`CO[C@@H]1O[C@H](C(=O)Nc2ccccc2)CC2=C1C(=O)c1ccccc1C2=O` (relative stereo) [BCH2042, (1,3-cis)-1-methoxy-3-N-anilinylcarbonyl-5,10-dioxo-3,4,5,10-tetrahydro-1H-naphtho-[2,3-c]-pyran]: the VLB/OV3 is 3.51.

Take `CC(=O)[C@@H]1CC2=C(C(=O)c3ccccc3C2=O)[C@@H](O[C@H]2C[C@H](NC(=O)C(F)(F)F)[C@H](I)[C@H](C)O2)O1` [BCH1620, (1'-S,1-R,3-S)-methyl-(1-[2',3',6'-trideoxy-3'-trifluoroacetamido-4'-iodo-L-lyxohexopyranose]-5,10-dioxo-3,4,5,10-tetrahydronaphtho-[2,3-c]-pyran-3-yl)-ketone]: the VLB/OV3 came to 51.31.

`COC1OC(C(=O)Nc2ccccc2)=CC2=C1C(=O)c1ccccc1C2=O` (stereo not shown) [BCH2044, 1-methoxy-3-N-anilinylcarbonyl-5,10-dioxo-5,10-dihydro-1H-naphtho-[2,3-c]-pyran]: the VLB/OV3 was found to be 3.55.

For the molecule `CO[C@H]1O[C@H](C(=O)O)CC2=C1C(=O)c1ccccc1C2=O` (relative stereo) [BCH2045, (1,3-trans)-1-methoxy-3-carboxyl-5,10-dioxo-3,4,5,10-tetrahydro-1H-naphtho-[2,3-c]-pyran], the VLB/OV3 was determined as 3.

For the molecule `CC(=O)O[C@@H]1[C@H](C)O[C@@H](O[C@@H]2O[C@@H](C(C)=O)CC3=C2C(=O)c2ccccc2C3=O)C(Br)[C@@H]1OC(C)=O` (stereo partly drawn) [BCH2099, (1'S,1S,3R)-methyl-(1-[2',6'-dideoxy-3',4'-diacetoxy-2'-bromo-L-lyxohexopyranose]-5,10-dioxo-3,4,5,10-tetrahydronaphtho-[2,3-c]-pyran-3-yl) ketone], the VLB/OV3 was 0.77-2.

Consider `CC(=O)O[C@H]1[C@@H](I)[C@H](O[C@@H]2O[C@@H](C(C)=O)CC3=C2C(=O)c2ccccc2C3=O)O[C@@H](C)[C@H]1OC(C)=O` [BCH1667, (1'S,1S,3R)-methyl-(1-[2',6'-dideoxy-3',4'-diacetoxy-2'-iodo-L-lyxohexopyranose]-5,10-dioxo-3,4,5,10-tetrahydronaphtho [2,3-c]-pyran-3-yl) ketone], for which the VLB/OV3 worked out at 7.32.

As to `C[C@@H]1O[C@@H](OC2OC(C#N)CC3=C2C(=O)c2ccccc2C3=O)C[C@H](NC(=O)C(F)(F)F)[C@@H]1O` (mixture of isomers) [BCH1688, (1'-S,1-R,3-S) and (1'-S,1-S,3-R)-3-cyano-1-[2',3',6'-trideoxy-3'-trifluoroacetamido-4'-hydroxy-L-lyxohexopyranose)-5,10-dioxo-3,4,5,10-tetrahydronaphtho-[2,3-C] pyran-3-yl], the VLB/OV3 stood at 4.37.

Take `CC(=O)C1CC2=C(C(=O)c3ccccc3C2=O)C(OCC2CCCN(C(=O)OC(C)(C)C)C2)O1` (mixture of isomers) [BCH2060, Methyl-(1-O-[N-BOC-3-piperidinemethanol]-5,6-dioxo-3,4,5,10-tetrahydronaphthaleno-[2,3-c]pyran-3-yl) ketone, mixture of isomers]: the VLB/OV3 was determined as 2.19.

Take `CC(=O)[C@H]1CC2=C(C(=O)c3ccccc3C2=O)[C@H](O[C@H]2C[C@H](NC(=O)C(F)(F)F)[C@H](Br)[C@H](C)O2)O1` [BCH2047, (1S,3R,1'S)-Methyl-(1-[2',3',4',6'-tetradeoxy-3'-trifluoroacetamido-4'-bromo-L-lyxohexopyranose]-5,10-dioxo-3,4,5,10-tetrahydronaphthaleno-[2,3-c]pyran-3-yl) ketone]: the VLB/OV3 was 31.

As to `CC(=O)[C@@H]1CC2=C(C(=O)c3ccc(O)cc3C2=O)[C@@H](O[C@H]2C[C@H](NC(=O)C(F)(F)F)[C@H](O)[C@H](C)O2)O1` [BCH1181, (1'S,1R,3S)-Methyl (5,10-dioxo-1-(2',3',6'-trideoxy-3'-trifluoroacetamido-L-lyxohexopyranose)-7-hydroxy-3,4,5,10-tetrahydro [2,3-C]pyran-3-yl) ketone], the VLB/OV3 stood at 3.75.

As to `COC(=O)C1(C(=O)OC)CC2=C(CO1)C(=O)c1ccccc1C2=O` [BCH1665, 3,3-bis-(methoxycarbonyl)-5,10-dioxo-3,4,5,10-tetrahydro-1H-naphtho-[2,3-c]-pyran], the VLB/OV3 amounted to 1.14.

`C[C@@H]1O[C@@H](O[C@H]2O[C@H](COc3ccccc3)CC3=C2C(=O)c2ccccc2C3=O)C[C@H](NC(=O)C(F)(F)F)[C@@H]1O` [BCH2032, (1'S,1R,3S)-5,10-dioxo-3-phenyloxymethyl-1-(2',3',6'-trideoxy-3'-trifluoroacetamido-L-lyxohexopyranose)-3,4,5,10-tetrahydro-1H-naphtho-[2,3-c] pyran]: the VLB/OV3 is given as 2-2.93.

Turning to `CC(=O)[C@H]1CC2=C(C(=O)c3ccccc3C2=O)[C@H](O[C@@H]2O[C@@H](C)[C@@H](O)[C@@H](NC(=O)C(F)(F)F)C2I)O1` (stereo partly drawn) [BCH2022, (1'S,1S,3R)-methyl-(1-[2',3',6'-trideoxy-2'-iodo-3'-trifluoroacetamido-4'-hydroxy-L-lyxohexopyranose]-5,10-dioxo-3,4,5,10-tetrahydronaphtho-[2,3-c]-pyran-3-yl) ketone], the VLB/OV3 is recorded as 4.23.

Consider `CC(C)[C@@H]1CC2=C(C(=O)c3ccccc3C2=O)[C@@H](O[C@H]2C[C@H](NC(=O)C(F)(F)F)[C@H](O)[C@H](C)O2)O1` [BCH2053, (1'S,1R,3S)-5,10-dioxo-3-isopropyl-1-(2',3',6'-trideoxy-3'-trifluoroacetamido-L-lyxohexopyranose)-3,4,5,10-tetrahydro-1H-naphtho-[2,3-c]-pyran], for which the VLB/OV3 is reported as 4.48.

Take `CC[C@H]1CC2=C(C(=O)c3ccccc3C2=O)[C@H](O[C@H]2C[C@H](N)[C@H](O)[C@H](C)O2)O1` [BCH2021, (1'S,1S,3S)-5,10-dioxo-3-ethyl-1-(2',3',6'-trideoxy-3'-amino-L-lyxohexopyranose)-3,4,5,10-tetrahydro-1H-naphtho-[2,3-c]-pyran]: the VLB/OV3 is on record as 3.74.

Take `CC[C@H]1CC2=C(C(=O)c3ccccc3C2=O)[C@H](O[C@H]2C[C@H](NC(=O)C(F)(F)F)[C@H](O)[C@H](C)O2)O1` [BCH2020, (1'S,1S,3S)-5,10-dioxo-3-ethyl-1-(2',3',6'-trideoxy-3'-trifluoroacetamido-L-lyxohexopyranose)-3,4,5,10-tetrahydro-1H-naphtho-[2,3-c]-pyran]: the VLB/OV3 stood at 2.31.

On to `CC(=O)[C@@H]1CC2=C(C(=O)c3ccccc3C2=O)[C@@H](O[C@H]2C[C@H](NC(=O)C(F)(F)F)[C@H](O)[C@H](C)O2)S1` [BCH2037, (1'S,1S,3S)-1-(3'-trifluoroacetamido-2',3',6'-trideoxy-L-lyxohexopyranose)-5,10-dioxo-3,4,5,10-tetrahydro-1H-naphtho-[2,3-c]-thiopyran], for which the VLB/OV3 was 0.93-6.41.
